Source: publication PMC11151152, “Chemoproteomics enables identification of coatomer subunit zeta‐1 targeted by a small molecule for enterovirus A71 inhibition” (MedComm, 2024)

Columns and labels:
[1] = biological target: T1, COPZ1 (endogenous, in EV-A71-infected RD cells) (Homo sapiens, UniProt P61923); assay: competition against MPA-P photoaffinity labelling, pulldown / western blot; type: cell-based; settings: competitor of photoaffinity probe MPA-P
T1 sequence (P61923 1-177): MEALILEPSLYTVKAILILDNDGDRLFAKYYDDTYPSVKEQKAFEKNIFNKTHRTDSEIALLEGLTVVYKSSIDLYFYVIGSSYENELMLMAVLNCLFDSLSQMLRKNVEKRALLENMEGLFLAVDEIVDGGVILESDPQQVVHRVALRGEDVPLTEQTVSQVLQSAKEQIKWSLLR

[2] = biological target: T2, COPZ1^7-150 (truncated human coatomer subunit zeta-1) (Homo sapiens, UniProt P61923); assay: SPR, CM5 chip, COPZ1 immobilised; type: binding
T2 construct: E. coli BL21(DE3), pET-28a(+)
T2 sequence (P61923 7-150): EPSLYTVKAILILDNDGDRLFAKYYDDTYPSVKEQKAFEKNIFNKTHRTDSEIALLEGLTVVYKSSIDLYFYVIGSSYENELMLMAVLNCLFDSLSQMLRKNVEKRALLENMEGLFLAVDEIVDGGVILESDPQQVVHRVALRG

[3] = biological target: T2, COPZ1^7-150 (truncated human coatomer subunit zeta-1); assay: fluorescence thermal shift assay (Sypro Orange); type: binding; settings: 10 µM compound; 4 µM protein; 20 mM HEPES, 150 mM NaCl, pH 7.5
[4] = biological target: T1, COPZ1 (endogenous, in EV-A71-infected RD cells); assay: photoaffinity labelling in cells, pulldown / western blot; type: cell-based; settings: covalent (diazirine photo-crosslinking, 365 nm)

SMILES	competition against MPA-P photoaffinity labelling, pulldown / western blot [1]	Kd [2]	ΔT m [3]	photoaffinity labelling in cells, pulldown / western blot [4]
O=C(c1ccc(C(F)(F)F)cc1O)c1[nH]c(Cl)c(Cl)c1-n1c(C(=O)c2ccc(C(F)(F)F)cc2O)cc(Cl)c1Cl [MPA-CF3]	implying that MPA‐CF3 specifically binds to COPZ1 in intact cells	24 nM	−3.6 °C	–
C#CCCC1(CCSc2c(Cl)cc(C(=O)c3ccc(C(F)(F)F)cc3O)n2-c2c(C(=O)c3ccc(C(F)(F)F)cc3O)[nH]c(Cl)c2Cl)N=N1 [MPA-P]	–	–	–	labeling intensity of COPZ1 by MPA‐P in EV‐A71‐infected RD cells
